The text below walks through data of patent EP4644375A1, “SUBSTITUTED HYDROQUINOLINES FOR THE TREATMENT OF GLIOBLASTOMA MULTIFORME” (Molius Saglik Teknolojileri Anonim Sirketi, priority 2024, dated 2025).

Test [1] concerns U138-MG human glioma cell. As to the kind of experiment: Cell proliferation analysis (MTT). The format is cell-based. The following applies: 10 µM, two days, MTT; for activity at 10 µM / inhibition at 10 µM: Homo sapiens, 48 h. The protocol:
(§1) U87-MG and U138-MG human glioma cell, were incubated with 10% fetal bovine serum (FBS) (Gibco, 10500-064), 1% L-glutamine (Gibco, 25030-024), in a humidified incubator with 5% CO2 at 37 °C. The cells were contained in DMEM High Glucose (Gibco, 41966-029) supplemented with 1% penicillin-streptomycin (P/S) (Gibco 15140-122) solution. The cytotoxic effects of the target compounds on U87-MG and U138-MG cell lines were assessed using the MTT (Thiazolyl Blue Tetrazolium Bromide) method. 7×10^3 cells were seeded into a 96-well plate in 100 µl DMEM High Glucose 10% FBS and 1% P/S. 24 hours after cell incubation, each target compound was added at a dose of 10 µM and the drug treatment was carried out for two days. After the incubation period, 10 µL of MTT solution was added to each well (5 mg/ml in PBS). After 2 hours, MTT solutions were removed from the wells. Then, 100 µl DMSO was added, and mixed to dissolve the formazan crystals. Cell proliferation was analysed by measuring the absorbance of dissolved formazan at a wavelength of 570 nm.
(§2) IC50 values were determined using the same method as above wherein the cells were treated with the target compounds at different doses.

The next test has as its system U87-MG human glioma cell. As to the kind of experiment: Cell proliferation analysis (MTT). It counts as cell-based. The note with it: 10 µM, two days, MTT; for activity at 10 µM / inhibition at 10 µM: Homo sapiens, U-87 MG, 48 h. The protocol: as §1, §2

On to `O=C1CCc2cc(OC(=O)N3CCCC3)ccc2N1` [TR-G061, 2-oxo-1,2,3,4-tetrahydroquinolin-6-yl pyrrolidine-1-carboxylate], for which the activity at 10 µM in test [1] was 92%; with U87-MG human glioma cell, 84%. Moreover, the inhibition at 10 µM in test [1] came to 8%; in the test with U87-MG human glioma cell, 16%.
For `CCCC(CCC)C(=O)Oc1ccc2c(c1)CCC(=O)N2` [TR-G062, 2-oxo-1,2,3,4-tetrahydroquinolin-6-yl 2-propylpentanoate] the same measures were 87%, 87%, 13% and 13%.
For `CC(=O)c1ccc(NC(=O)COc2ccc3c(c2)CCC(=O)N3)cc1` [TR-G064, N-(4-acetylphenyl)-2-((2-oxo-1,2,3,4-tetrahydroquinolin-6-yl)oxy)acetamide], in that order: 78%, 70%, 22% and 30%.
For `O=C1CCc2cc(OC(=O)c3ccc(CCl)cc3)ccc2N1` [TR-G065, 2-oxo-1,2,3,4-tetrahydroquinolin-6-yl 4-(chloromethyl)benzoate], in that order: 90%, 73%, 10% and 27%.
In test [1], `CCCOc1ccc2c(c1)CCC(=O)N2` [TR-G068, 6-propoxy-3,4-dihydroquinolin-2(1H)-one] had an activity at 10 µM of 82% and an inhibition at 10 µM of 18%. In the test with U87-MG human glioma cell, the activity at 10 µM was found to be 59% and the inhibition at 10 µM is 42%.
`O=C1CCc2cc(OCC3CC(c4ccc(Cl)cc4)=NO3)ccc2N1` (centres unmarked) [TR-G070, 6-((3-(4-chlorophenyl)-4,5-dihydroisoxazol-5-yl)methoxy)-3,4-dihydroquinolin-2(1H)-one]: the figures for the activity at 10 µM (in test [1]; in the test with U87-MG human glioma cell) were 79% and 68%, respectively. Also, the results for the inhibition at 10 µM (in test [1]; in the test with U87-MG human glioma cell) were 21% and 33%, respectively.
For `O=C1CCc2cc(OS(=O)(=O)c3ccc(C(F)(F)F)cc3)ccc2N1` [TR-G073, 2-oxo-1,2,3,4-tetrahydroquinolin-6-yl 4-(trifluoromethyl)benzenesulfonate], in that order: 94%, 87%, 6% and 13%.
Take `O=C1CCc2cc(OCCCBr)ccc2N1` [TR-G074, 6-(3-bromopropoxy)-3,4-dihydroquinolin-2(1H)-one]: the “Cell Proliferation (%)” value was 81% in test [1] and 85% with U87-MG human glioma cell. The inhibition at 10 µM in test [1] came to 19%; in the test on U87-MG human glioma cell, 15%.
For the molecule `O=C(COc1ccc2c(c1)CCC(=O)N2)Nc1ccc(F)c(Cl)c1` [TR-G075, N-(3-chloro-4-fluorophenyl)-2-((2-oxo-1,2,3,4-tetrahydroquinolin-6-yl)oxy)acetamide], in test [1], the activity at 10 µM came to 85% and testing at 10 µM gave an inhibition of 15%. Besides, in the test with U87-MG human glioma cell, the activity at 10 µM came to 68% and the inhibition at 10 µM turned out to be 32%.
For `Nc1ncc(/C=N/NC(=O)COc2ccc3c(c2)CCC(=O)N3)cn1` [TR-G076, (E)-N'-((2-aminopyrimidin-5-yl)methylene)-2-((2-oxo-1,2,3,4-tetrahydroquinolin-6-yl)oxy)acetohydrazide] the same measures were 92%, 8%, 97% and 3%.
For `COc1ccc(NC(=O)COc2ccc3c(c2)CCC(=O)N3)cc1OC` [TR-G077, N-(3,4-dimethoxyphenyl)-2-((2-oxo-1,2,3,4-tetrahydroquinolin-6-yl)oxy)acetamide], in that order: 88%, 12%, 88% and 12%.

For orientation: inhibition means the share of the control response that was lost under treatment. High values mean a response far below the control, low ones a response near the control.
